Laboratory results from ChEMBL document CHEMBL3399956, “Cell-based biological evaluations of 5-(3-bromo-4-phenethoxybenzylidene)thiazolidine-2,4-dione as promising wound healing agent” (Bioorg Med Chem, 2015).
Activity calls are given as the source filed them. The calls are words filed in the database; no cut-off is given here.

How the values were obtained:
[1] = target: T1, 15-hydroxyprostaglandin dehydrogenase [NAD(+)] (Homo sapiens) (UniProt P15428); experiment: Inhibition of 15-PGDH in human A549 cells assessed as increase in PGE2 level at 5 uM after 12 hrs by immunoassay relative to control; assay type: cell-based
T1 sequence (whole entry): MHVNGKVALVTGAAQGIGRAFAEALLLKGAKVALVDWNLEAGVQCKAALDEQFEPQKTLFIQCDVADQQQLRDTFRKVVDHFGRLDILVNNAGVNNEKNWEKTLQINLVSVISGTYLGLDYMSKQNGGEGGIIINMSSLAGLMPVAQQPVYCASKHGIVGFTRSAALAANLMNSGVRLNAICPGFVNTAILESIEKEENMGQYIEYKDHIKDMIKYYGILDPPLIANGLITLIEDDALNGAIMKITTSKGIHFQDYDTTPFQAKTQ

HaCaT [2] = experiment: Induction of SCL expression in human HaCaT cells at 5 uM by qRT-PCR analysis relative to control; assay type: functional
HS27 [3] = experiment: Induction of KDR expression in human HS27 cells at 5 uM by qRT-PCR analysis; assay type: functional, cell-based
HS27 [4] = experiment: Induction of SCL expression in human HS27 cells at 5 uM by qRT-PCR analysis; assay type: functional, cell-based
HaCaT [5] = experiment: In vitro wound healing effect on human HaCaT cells assessed as wound healing at 5 uM after 48 hrs in presence of 15-PGDH; assay type: functional, cell-based
HS27 [6] = experiment: In vitro wound healing effect on human HS27 cells assessed as wound healing at 5 uM after 48 hrs; assay type: functional, cell-based
HaCaT [7] = experiment: In vitro wound healing effect on human HaCaT cells assessed as improvement wound healing at 5 uM after 48 hrs; assay type: functional, cell-based
[8] = target: T2, 15-hydroxyprostaglandin dehydrogenase [NAD(+)] (Homo sapiens, UniProt P15428); experiment: Inhibition of 15-PGDH (unknown origin) by fluorescence spectrophotometry
T2 sequence (P15428 whole entry): T1 sequence (whole entry)

HS27 [9] = experiment: Induction of C-MYB expression in human HS27 cells at 5 uM by qRT-PCR analysis; assay type: functional, cell-based
HS27 [10] = experiment: Induction of GATA2 expression in human HS27 cells at 5 uM by qRT-PCR analysis; assay type: functional, cell-based
HS27 [11] = experiment: Induction of LMO2 expression in human HS27 cells at 5 uM by qRT-PCR analysis; assay type: functional, cell-based
HS27 [12] = experiment: Induction of RUNX1 expression in human HS27 cells at 5 uM by qRT-PCR analysis; assay type: functional, cell-based
[13] = target: T1, 15-hydroxyprostaglandin dehydrogenase [NAD(+)] (Homo sapiens); experiment: Inhibition of 15-PGDH in human A549 cells assessed as increase in PGE2 level after 12 hrs by immunoassay; assay type: cell-based

Structure (SMILES) | Activity [1] | Activity (HaCaT [2]) | Activity (HS27 [3]) | fold change (FC) (HaCaT [2]) | Activity (HS27 [4]) | inhibition (HaCaT [5]) | fold change (FC) [1] | inhibition (HS27 [6]) | Activity (HaCaT [7]) | IC50 [8] | Activity (HS27 [9]) | Activity (HS27 [10]) | Activity (HS27 [11]) | Activity (HS27 [12]) | Activity [13]
O=C1NC(=O)/C(=C/c2ccc(OCCCc3ccccc3)c(Br)c2)S1 | Active | – | – | – | – | – | – | – | – | – | – | – | – | – | –
COc1ccc2c(c1)c(CC(=O)O)c(C)n2C(=O)c1ccc(Cl)cc1 | – | inactive | – | – | – | – | – | – | – | – | – | – | – | – | –
O=C1NC(=O)/C(=C/c2ccc(OCCc3ccccc3)c(Br)c2)S1 | 451 pg/mL | – | inactive | 2 | inactive | inactive | 7 | inactive | Active | 4 nM | inactive | inactive | inactive | inactive | Dose-dependent effect
